Earlier results, collected in patent US20210128795A1, “SPIRAL COATED STENT WITH CONTROLLABLE GRADIENT DEGRADATION, PREPARATION METHOD THEREOF AND APPLICATION THEREOF” (Zhuhai Ruizhan Biomaterials Co., Ltd., priority 2018, published 2021).
Read-outs that look alike come from different tables or passages of the source.

Test system: rats

Compound	LD50 value (median lethal dose) (rats per os)	LD50 value (median lethal dose) (rat, in vivo)
OCCCO [1,3-propanediol]	16,080 mg/kg	
OCCCCO [1,4-butanediol]		1,525 mg/kg
